Km data for one molecule are collected here from paper PMC11199699 (Scientific Reports, 2024).

Molecules are shown by their SMILES.

Assay [1] has as its system T1, PSMK_RS04265 (type 3 L-KDFDH).
T1 construct: pQE-80L, N-terminal (His)6-tag, expressed in E. coli, Ni-NTA
Briefly: spectrophotometric NADH formation at […] nm, Lineweaver-Burk. The assay is classed as biochemical, Phycisphaera mikurensis. Conditions: 1.5 mM NAD+, 50 mM Tris-HCl pH 8.0, 30 °C.

Assay [2] has as its system T2, PEH01S_RS21285 (type 2 L-KDFDH).
T2 construct: pQE-80L, N-terminal (His)6-tag, expressed in E. coli, Ni-NTA
Described as above. In kind it is biochemical, Paenibacillus ehimensis. Conditions: 1.5 mM NAD+, 50 mM Tris-HCl pH 8.0, 30 °C.

What is called Km is the substrate concentration at which the rate is half of its maximum. As to `C[C@H](O)[C@@H](O)CC(=O)C(=O)O` [L-KDF], the Km amounted to 6.08 ± 0.15 mM in assay [1] and 0.529 ± 0.021 mM in assay [2].
